Reference: paper PMC11520566, “Discovery of pyrazole-based analogs as CDK2 inhibitors with apoptotic-inducing activity: design, synthesis and molecular dynamics study” (RSC Advances, 2024)

Key:
HS 578T = assay: NCI 60 five dose assay, Breast cancer; type: cell-based, human
OVCAR-4 = assay: NCI 60 five dose assay, Ovarian cancer; type: cell-based, human
CDK2 = assay: Western blot of CDK2 expression in HCT-116 cells; type: cell-based; details: 3 μM, 48 h, vs vehicle treated cells
Excerpt: The method of sodium dodecyl sulfate polyacrylamide gel electrophoresis (SDS-PAGE) is employed to separate proteins based on their size. When combined with western blotting (immunoblotting), both techniques are commonly used to identify the presence and/or relative abundance of a specific protein within a sample containing a complex mixture of proteins.[36] In this process, each sample's total protein content is loaded onto a gel and separated by electrophoresis, allowing proteins to migrate through the gel matrix under the influence of an electric current. To facilitate protein migration, the proteins are initially denatured and given a negative charge by exposure to a detergent like SDS. A molecular weight marker with known-sized bands assists in identifying proteins of interest. […] Typically, the secondary antibody is linked to an enzyme that generates luminescence upon reacting with its substrate. The intensity of the luminescence, directly correlating with the amount of protein that interacted with the antibody, is captured by a Bio-Rad Imager.[36] […]
HCT-116 cells were treated with either 3 μM of compound 4 and 1 μM of compound 9 and incubated 48 h. The cells were lysed by 1× RIPA buffer containing protease and phosphatase inhibitors to quantify the protein concentration by BCA protein assay. […]

[1] = Homo sapiens, read-out: LC50 (the source's name)

Question: For `CC(=NNc1ccc(S(N)(=O)=O)cc1)c1ccc(NN=C2C(=O)NN=C2Nc2ccccc2)cc1` [Compound 4, 4-(2-(1-(4-(2-(5-oxo-3-(phenylamino)-1,5-dihydro-4H-pyrazol-4-ylidene)hydrazinyl)phenyl)ethylidene)hydrazinyl)benzene sulfonamide], which GI50 (HS 578T; Homo sapiens) is on record?
Answer: 3.31 µM

Question: And the CC50 (HS 578T; [1])?
Answer: > 100 µM

Question: What about the “Percent Growth” value (HS 578T; Log10 Concentration -4.0 Molar) of the same compound?
Answer: -28%

Question: What about the “Percent Growth” value (HS 578T; Log10 Concentration -5.0 Molar) of the same compound?
Answer: 11%

Question: What about the “Percent Growth” value (HS 578T; Log10 Concentration -6.0 Molar) of the same compound?
Answer: 92%

Question: And the “Percent Growth” value (HS 578T; Log10 Concentration -7.0 Molar)?
Answer: 93%

Question: And the “Percent Growth” value (HS 578T; Log10 Concentration -8.0 Molar)?
Answer: 85%

Question: What about the GI50 (OVCAR-4; Homo sapiens) of the same compound?
Answer: 2.84 µM

Question: And the CC50 (OVCAR-4; [1])?
Answer: 40.7 µM

Question: What about the “Percent Growth” value (OVCAR-4; Log10 Concentration -4.0 Molar) of the same compound?
Answer: -80%

Question: What about the “Percent Growth” value (OVCAR-4; Log10 Concentration -5.0 Molar) of the same compound?
Answer: -3%

Question: What about the “Percent Growth” value (OVCAR-4; Log10 Concentration -6.0 Molar) of the same compound?
Answer: 94%

Question: What about the “Percent Growth” value (OVCAR-4; Log10 Concentration -7.0 Molar) of the same compound?
Answer: 98%

Question: What about the “Percent Growth” value (OVCAR-4; Log10 Concentration -8.0 Molar) of the same compound?
Answer: 94%

Question: And the “expression of CDK-2 (western blot)” value (CDK2)?
Answer: inhibitions in the expression of CDK-2
